From ChEMBL document CHEMBL4190399, “Spiro[pyrrolidine-3,3'-oxindoles] as 5-HT7 receptor ligands” (Bioorg Med Chem Lett, 2018)

Legend:
[1] = target: 5-hydroxytryptamine receptor 7 (Homo sapiens, UniProt P34969); assay: Displacement of [3H]-5-CT from human 5-HT7b receptor expressed in HEK293 cell membranes after 1 hr at 37 degC by microbeta scintillation counting analysis
[2] = target: T1, 5-hydroxytryptamine receptor 1A (Homo sapiens, UniProt P08908); assay: Displacement of [3H]-8-OH-DPAT from human 5-HT1A receptor expressed in HEK293 cell membranes after 1 hr by microbeta scintillation counting analysis
T1 sequence (P08908 whole entry): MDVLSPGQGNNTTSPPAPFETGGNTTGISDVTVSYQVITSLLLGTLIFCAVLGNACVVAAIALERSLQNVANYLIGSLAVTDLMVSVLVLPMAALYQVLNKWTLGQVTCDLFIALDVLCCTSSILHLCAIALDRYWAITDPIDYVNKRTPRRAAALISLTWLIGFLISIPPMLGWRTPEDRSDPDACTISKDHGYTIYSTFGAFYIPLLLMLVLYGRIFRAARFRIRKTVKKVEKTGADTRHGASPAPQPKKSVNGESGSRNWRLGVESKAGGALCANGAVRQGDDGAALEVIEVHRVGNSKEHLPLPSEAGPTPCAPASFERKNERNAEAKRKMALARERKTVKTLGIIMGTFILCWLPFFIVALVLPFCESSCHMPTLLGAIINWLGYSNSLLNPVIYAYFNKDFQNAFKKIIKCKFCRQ

[3] = target: 5-hydroxytryptamine receptor 2A (Homo sapiens, UniProt P28223); assay: Displacement of [3H]-Ketanserin from human 5-HT2A receptor expressed in CHO-K1 cell membranes after 1.5 hrs by microbeta scintillation counting analysis
[4] = target: 5-hydroxytryptamine receptor 6 (Homo sapiens, UniProt P50406); assay: Displacement of [3H]-LSD from human 5-HT6 receptor expressed in HEK293 cell membranes after 1 hr at 37 degC by microbeta scintillation counting analysis
[5] = species: Homo sapiens; assay: Selectivity index, ratio of Ki for human 5-HT1A receptor expressed in HEK293 cell membranes to Ki for human 5-HT7b receptor expressed in HEK293 cell membranes; type: cell-based
[6] = species: Homo sapiens; assay: Selectivity index, ratio of Ki for human 5-HT2A receptor expressed in CHO-K1 cell membranes to Ki for human 5-HT7b receptor expressed in HEK293 cell membranes; type: cell-based
[7] = species: Homo sapiens; assay: Selectivity index, ratio of Ki for human 5-HT6 receptor expressed in HEK293 cell membranes to Ki for human 5-HT7b receptor expressed in HEK293 cell membranes; type: cell-based

5-hydroxytryptamine receptor 6, sequence (P50406 whole entry): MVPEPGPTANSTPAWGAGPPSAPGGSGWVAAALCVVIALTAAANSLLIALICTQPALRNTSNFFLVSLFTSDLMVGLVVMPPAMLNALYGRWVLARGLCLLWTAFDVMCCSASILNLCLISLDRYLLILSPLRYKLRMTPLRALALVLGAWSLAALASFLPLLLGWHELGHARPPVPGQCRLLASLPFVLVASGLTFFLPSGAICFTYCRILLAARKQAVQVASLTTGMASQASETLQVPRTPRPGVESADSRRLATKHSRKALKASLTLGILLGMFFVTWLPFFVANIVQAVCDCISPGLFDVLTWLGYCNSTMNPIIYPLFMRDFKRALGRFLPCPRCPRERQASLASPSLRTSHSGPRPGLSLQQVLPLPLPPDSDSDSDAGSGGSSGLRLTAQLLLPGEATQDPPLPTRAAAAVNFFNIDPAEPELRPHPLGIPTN
5-hydroxytryptamine receptor 2A, sequence (P28223 whole entry): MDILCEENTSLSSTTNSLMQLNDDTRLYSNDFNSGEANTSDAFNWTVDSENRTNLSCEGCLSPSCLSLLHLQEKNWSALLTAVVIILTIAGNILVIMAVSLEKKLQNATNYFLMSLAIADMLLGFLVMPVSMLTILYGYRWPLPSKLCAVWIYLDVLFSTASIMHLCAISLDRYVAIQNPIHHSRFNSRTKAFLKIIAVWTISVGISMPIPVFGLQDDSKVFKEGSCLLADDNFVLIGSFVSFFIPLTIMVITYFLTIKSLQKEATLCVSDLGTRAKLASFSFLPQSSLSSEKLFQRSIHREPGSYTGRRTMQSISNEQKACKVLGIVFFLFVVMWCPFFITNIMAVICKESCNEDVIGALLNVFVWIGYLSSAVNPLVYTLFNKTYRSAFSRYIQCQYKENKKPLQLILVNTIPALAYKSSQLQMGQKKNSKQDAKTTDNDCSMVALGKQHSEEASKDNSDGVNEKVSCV
5-hydroxytryptamine receptor 7, sequence (P34969 whole entry): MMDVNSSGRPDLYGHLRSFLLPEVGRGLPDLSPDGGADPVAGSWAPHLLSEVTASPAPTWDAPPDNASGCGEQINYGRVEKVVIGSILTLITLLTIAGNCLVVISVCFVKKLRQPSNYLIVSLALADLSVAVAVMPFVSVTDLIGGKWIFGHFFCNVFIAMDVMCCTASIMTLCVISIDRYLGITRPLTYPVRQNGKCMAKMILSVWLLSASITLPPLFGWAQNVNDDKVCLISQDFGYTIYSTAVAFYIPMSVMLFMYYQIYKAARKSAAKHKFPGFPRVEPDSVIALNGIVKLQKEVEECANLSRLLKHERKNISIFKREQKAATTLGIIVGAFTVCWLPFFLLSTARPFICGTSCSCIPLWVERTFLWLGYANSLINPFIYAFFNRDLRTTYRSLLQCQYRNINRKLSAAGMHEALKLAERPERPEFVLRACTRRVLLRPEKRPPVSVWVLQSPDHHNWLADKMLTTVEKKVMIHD

SMILES	Ki [1] [µM]	Ki [2] [µM]	Ki [3] [µM]	Ki [4] [µM]	Ratio Ki [5]	Ratio Ki [6]	Ratio Ki [7]
O=C1Nc2ccccc2C12CCN(CCN1CCC(c3ccc(F)cc3)CC1)C2 (centres undefined)	0.275	52	0.259	5.28	189	0.9	19.2
O=C1Nc2ccccc2C12CCN(CCCN1CCN(c3ccc(Cl)cc3)CC1)C2 (centres undefined)	0.067	2.89	0.715	5.56	43.1	10.7	83
O=C1Nc2ccccc2C12CCN(CCN1CCN(c3ccc(Cl)cc3)CC1)C2 (centres undefined)	0.029	3.76	0.068	4.74	130	2.3	163
O=C(c1ccc(Cl)cc1)N1CCN(CCN2CCC3(C2)C(=O)Nc2ccccc23)CC1 (centres undefined)	0.529	48.2	17.3	7.75	91.2	32.8	14.6
O=C1Nc2ccccc2C12CCN(CCN1CC=C(c3ccc(F)cc3)CC1)C2 (centres undefined)	0.043	3.95	0.075	6.27	91.8	1.7	146
O=C1Nc2ccccc2C12CCN(CCN1CCN(c3ccc(Cl)c(Cl)c3)CC1)C2 (centres undefined)	0.038	4.05	0.27	1.13	107	7.1	29.8
O=C1Nc2ccccc2C12CCN(CCN1CCN(c3ccccc3)CC1)C2 (centres undefined)	0.1	6	0.496	6.56	60.1	5	65.6
O=C1Nc2ccccc2C12CCN(CCN1CCN(c3cccc(Cl)c3)CC1)C2 (centres undefined)	0.055	2.69	0.351	2	48.9	6.4	36.5
O=C1Nc2ccccc2C12CCN(CCN1CCC(Oc3ccc(Cl)cc3)CC1)C2 (centres undefined)	0.121	13.8	0.343	1.69	114	2.8	14
O=C1Nc2ccccc2C12CCN(CCN1CCC(c3ccc(Cl)cc3)CC1)C2 (centres undefined)	0.284	14.9	0.404	4.58	52.5	1.4	16.1
O=C1Nc2ccccc2C12CCN(CCN1CCN(c3ccccc3Cl)CC1)C2 (centres undefined)	0.245	1.1	0.452	2.84	4.5	1.8	11.6
O=C1Nc2ccccc2C12CCN(CCN1CCN(c3ccc(F)cc3)CC1)C2 (centres undefined)	0.021	14.2	0.059	4.74	674	2.8	226
